{"source": "patent US20050090475A1", "about": "“Extended triphasic contraceptive regimens” (priority 2003, published 2005)", "origin": "cited, not measured here", "key": {"endometrium": {"test_system": "endometrium", "details": "animal models"}, "[1]": {"details": "ovariectomized rat, compared with progesterone"}, "[2]": {"test_system": "serum hormone binding globulin (SHBG)", "details": "in vivo"}, "[3]": {"target": "T1, endometrial progesterone receptors (Homo sapiens, UniProt P06401)", "T1 sequence (P06401 1-933)": "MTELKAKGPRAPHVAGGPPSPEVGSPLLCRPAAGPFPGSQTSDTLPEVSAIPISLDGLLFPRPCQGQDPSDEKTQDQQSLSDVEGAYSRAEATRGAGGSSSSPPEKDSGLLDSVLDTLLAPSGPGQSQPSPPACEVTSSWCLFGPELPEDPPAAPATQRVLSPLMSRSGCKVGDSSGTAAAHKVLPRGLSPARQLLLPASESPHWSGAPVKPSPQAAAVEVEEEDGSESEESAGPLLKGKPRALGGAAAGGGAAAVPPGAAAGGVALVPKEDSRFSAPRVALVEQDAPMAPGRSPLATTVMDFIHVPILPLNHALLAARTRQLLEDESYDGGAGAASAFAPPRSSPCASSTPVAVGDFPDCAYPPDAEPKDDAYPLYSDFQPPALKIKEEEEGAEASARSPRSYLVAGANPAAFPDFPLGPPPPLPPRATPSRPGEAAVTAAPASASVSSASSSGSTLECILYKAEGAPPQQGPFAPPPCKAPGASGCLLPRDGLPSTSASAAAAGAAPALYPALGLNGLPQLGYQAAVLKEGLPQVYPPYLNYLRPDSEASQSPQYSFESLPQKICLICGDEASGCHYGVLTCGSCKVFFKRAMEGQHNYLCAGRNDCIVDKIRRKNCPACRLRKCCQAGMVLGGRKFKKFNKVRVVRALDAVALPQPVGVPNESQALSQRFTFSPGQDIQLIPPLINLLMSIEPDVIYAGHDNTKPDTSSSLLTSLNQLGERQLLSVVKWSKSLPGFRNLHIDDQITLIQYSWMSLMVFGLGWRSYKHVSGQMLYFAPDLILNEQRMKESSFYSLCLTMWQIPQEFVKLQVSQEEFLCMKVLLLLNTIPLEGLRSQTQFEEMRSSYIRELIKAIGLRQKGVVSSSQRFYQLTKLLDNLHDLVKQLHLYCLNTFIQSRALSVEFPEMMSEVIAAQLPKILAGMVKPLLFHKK"}}}
{"smiles": "C#C[C@]1(OC(C)=O)CC[C@H]2[C@@H]3CCC4=CC(=NO)CC[C@@H]4[C@H]3CC[C@@]21CC", "note": "(mixture of isomers) [norgestimate]", "values": [{"measurement": "endometrium in comparison to other, more androgenic, progestins", "setting": "endometrium", "result": "remains relatively thick and supported"}, {"measurement": "maintenance of pregnancy", "setting": "[1]", "result": "maintains pregnancy as well as progesterone"}, {"measurement": "effect on serum hormone binding globulin (SHBG) levels", "setting": "[2]", "result": "minimal effect"}, {"measurement": "affinity for endometrial progesterone receptors", "setting": "[3]", "result": "high affinity"}]}
